Experimental data: patent publication US12472185B2, “Methods for killing antibiotic tolerant bacteria” (THE PENN STATE RESEARCH FOUNDATION, priority 2020, dated 2025)
Values after ≈ are worked out from the molar mass of the structure shown. Values joined by “and” are separate entries in the source; they are usually repeats but may differ in a detail not shown here. Equal values may be shown once. Each block holds one compound with its values, some of them ahead of it.

Tests used:
[1] = test system: E. coli BW25113 exponential cells; assay: Survival of exponentially-growing cells (drop assay); format: cell-based, Escherichia coli; details: 100 μM, 6 hr
Procedure: (§1) FIG. 2. NPIMA eradicates Escherichia coli, Pseudomonas aeruginosa, and Staphylococcus aureus exponential cells. Survival after 6 hr for (a) E. coli BW25113 with NPIMA and 5-iodoindole at 100 μM, (b) P. aeruginosa PA14 with NPIMA and 5-iodoindole at 100 μM, and (c) S. aureus with NPIMA and 5-iodoindole at 200 μM. Asterisk indicates no viable cells detected. NPIMA, 5-nitro-3-phenyl-1H-indol-2-yl-methylamine hydrochloride.
FIG. 8. NPIMA structure function relationships. Exponential cells of Escherichia coli BW25113 were treated with (a) 2-(aminomethyl) indole, and (b) 2-methyl-5-nitro-3-phenyl-1H-indole for 6 hr. NPIMA, 5-nitro-3-phenyl-1Hindol-2-yl-methylamine hydrochloride.
(§2) For bacterial viability, cells were washed twice with 0.85% NaCl, resuspended in 1×PBS, and cell counts were determined via the drop assay (Donegan, Matyac, Seidler, & Porteous, 1991). For human cell viability, pre-cultured human cancer HT-29 cells were dispensed in 98 μl in 96-well plates with approximately 5,000 cells/well. NPIMA was added (2 μl) to produce concentrations of 5, 10, 100, and 200 μM. For controls, Triton X-100 (positive control) and DMSO (negative solvent control), were used, and the medium was used for background. Plates were incubated in a humidified incubator (37° C., 5% CO2) for 24 hr. Cell viability was determined via a cell counting kit (CCK-8 Kit, ab228554; Abcam), and cytotoxicity was determined via the lactate dehydrogenase (LDH) assay (LDH Assay Kit, MK401; Takara).

E. coli K-12 BW25113 = assay: Minimum inhibitory concentration (MIC); format: cell-based; details: Escherichia coli, LB, 24 hr
Procedure: (§3) The bacteria used in this study are E. coli K-12 BW25113 (Baba et al., 2006), S. aureus ATCC29213, and P. aeruginosa PA14 (Liberati et al., 2006). Lysogeny broth (LB; Bertani, 1951) was used at 37° C. for culturing the bacteria. 2-(Aminomethyl)-indole was obtained from Sigma-Aldrich (catalog number 563838), and 2-methyl-5-nitro-3-phenyl-1H-indole was obtained from ChemBridge (San Diego, CA).
(§4) To determine the MICs of NPIMA and 5-iodoindole for E. coli K-12, S. aureus, and P. aeruginosa PA14, cells were inoculated into LB at varying concentrations and grown for 24 hr. The MIC was determined as the lowest concentration that prevented an increase in growth as evidenced by a lack of change of turbidity.

P. aeruginosa PA14 = assay: Minimum inhibitory concentration (MIC); format: cell-based; details: Pseudomonas aeruginosa, LB, 24 hr
Procedure: as §3, §4

S. aureus ATCC29213 = assay: Minimum inhibitory concentration (MIC); format: cell-based; details: Staphylococcus aureus, LB, 24 hr
Procedure: as §3, §4

[2] = test system: E. coli BW25113 persister cells; assay: Survival of persister cells (rifampicin/ampicillin generated); format: cell-based, Escherichia coli; details: 100 μM, 6 hr
Procedure: FIG. 3. NPIMA kills Escherichia coli, Pseudomonas aeruginosa, persister cells. Survival of (a) E. coli BW25113 and (b) P. aeruginosa PA14 after treatment with NPIMA (100 μM), 5-iodoindole (5-II, 100 μM), and DMSO for 6 hr. Asterisk indicates no viable cells detected. DMSO, dimethyl sulfoxide; NPIMA, 5-nitro-3-phenyl-1H-indol-2-yl-methylamine hydrochloride.
E. coli persister cells were prepared following our previous method (Kim, Yamasaki, et al., 2018; Kwan, Valenta, Benedik, & Wood, 2013). Exponentially-growing cells (turbidity of 0.8 at 600 nm) were treated with rifampicin (100 μg/ml for 30 min) to stop transcription, washed, and any remaining nonpersister cells were lysed by ampicillin in LB (100 μg/ml for 3 hr). Cells were harvested by centrifugation (17,000 g for 1 min) and washed with 1× phosphate-buffered saline buffer (PBS, 8 g NaCl, 0.2 g KCl, 1.15 g Na2HPO4, and 0.2 g KH2PO4 per 1,000 ml) twice to remove all possible carbon sources, then resuspended with 1×PBS. Natural E. coli persister cells were generated by treating stationary-phase cells (turbidity of 6 at 600 nm) with ampicillin (100 μg/ml) for 3 hr. P. aeruginosa PA14 persister cells were prepared by incubating to the stationary phase, diluting sixfold, and treating with carbonyl cyanide m-chlorophenylhydrazone (CCCP, 50 mg/ml stock solution in dimethly sulfoxide [DMSO]) to stop adenosine triphosphate (ATP) production (200 μg/ml for 3 hr), washed twice with 0.85% NaCl (5,000 g for 10 min), and any nonpersister cells were killed by ciprofloxacin (5 μg/ml) in LB for 3 hr. Following the antibiotic treatment, bacteria were washed twice with 0.85% NaCl (5,000 g for 10 min).
For bacterial viability, cells were washed twice with 0.85% NaCl, resuspended in 1×PBS, and cell counts were determined via the drop assay (Donegan, Matyac, Seidler, & Porteous, 1991). […] Cell viability was determined via a cell counting kit (CCK-8 Kit, ab228554; Abcam), and cytotoxicity was determined via the lactate dehydrogenase (LDH) assay (LDH Assay Kit, MK401; Takara).

[3] = test system: P. aeruginosa PA14 exponential cells; assay: Survival of exponentially-growing cells (drop assay); format: cell-based, Pseudomonas aeruginosa; details: 100 μM
Procedure: as §1, §2

S. aureus cells = assay: Survival of cells (drop assay); format: cell-based, Staphylococcus aureus; details: 200 μM
Procedure: as §1, §2

E. coli persister cells [4] = details: 1 mM; Lee et al., 2016; cited from earlier work
E. coli persister cells [5] = assay: Re-test of resuscitation hits in minimal alanine medium, 96-well plates; format: cell-based, Escherichia coli; details: 100 μM
Procedure: ChemBridge screen to identify resuscitation compounds. To identify compounds that resuscitate E. coli persister cells, the DIVERset Library from ChemBridge (San Diego, CA) containing 10,000 druglike compounds with high pharmacophore diversity was evaluated by adding 4 μL of each compound (final concentration 100 μM, dissolved in DMSO) to 186 μL of LB in 96 well plates and then adding 10 μL of persister cells. The negative control was 2 vol % DMSO. Resuscitation was calculated as the change in turbidity at 600 nm. The compounds that were identified initially were re-tested in M9 minimal medium with 5× alanine (24).

[6] = test system: E. coli BW25113 persister cells; assay: Single-cell persister resuscitation; format: cell-based, Escherichia coli; details: 100 μM, M9 alanine (5×) agarose gel pads, 6 h
From the text: FIG. 12. RluD increases persister resuscitation by increasing ribosomes for resuscitation. (A) Single-cell persister resuscitation as determined using light microscopy (Zeiss Axio Scope.A1). The fold-change in resuscitation is relative to BW25113 with DMSO for BW25113 with BPOET, relative to BW25113 for the ΔrluD mutant, relative to BW25113/pCA24N for the strain producing RluD from pCA24N plasmid in BW25113, and relative to MG1655 for ΔrybB. M9 glucose (0.4%) agarose gel pads were used for all the strains except BW25113 with BPOET where M9 alanine (5×) agarose gel pads including 100 μM of BPOET or DMSO were used. The results are the combined observations from two independent experiments after 6 h for the BW25113 with BPOET, after 4 h for BW25113 and its deletion mutants, and after 6 h for cells harboring pCA24N and its derivatives as well as for MG1655 and MG1655 ΔrybB. Error bars indicate standard deviations. (B) Active 70S ribosomes in single persister cells for MG1655-ASV/pCA24N-rluD (“RluD”) VS. MG1655-ASV/pCA24N (“Empty”). Cells are shown on agarose gel pads at time 0 for resuscitation; i.e., after the formation of persister cells. Representative results from three independent cultures are shown.
Single-cell persister resuscitation. As described previously (19), 5 μL of cell populations consisting of 100% persister cells were added to 1.5% agarose gel pads containing either M9 medium with glucose (0.4 wt %) or alanine (5×) as a carbon source (24), and resuscitation was monitored at 37° C. via a light microscope (Zeiss Axio Scope.A1, bl_ph channel at 1000 ms exposure).
Table 5. Single persister cell resuscitation. Single-cell persister resuscitation as determined using light microscopy (Zeiss Axio Scope.A1) using agarose gel pads. The fold-change in resuscitation is relative to BW25113 with DMSO for BW25113 with BPOET, relative to BW25113 for the ΔrluD, relative to BW25113/pCA24N for the strain producing RluD from pCA24N in BW25113, and relative to MG1655 for ΔrybB. […]

E. coli persister cells [7] = assay: ChemBridge screen for persister cell killing; format: cell-based, Escherichia coli; details: 100 μM, 24 hr
Procedure: FIG. 1. […] Escherichia coli persister cells were treated for 24 hr at 100 μM with: • 1: N-(3,4-dichlorophenyl)-N′-(3-fluorophenyl) thiourea; • 2: 2-({2-[(4-bromophenyl)amino]-4-quinazolinyl}amino)ethanol hydrochloride; • 3: 2-[(6-phenyl-2,3,4,9-tetrahydro-1H-carbazol-1-yl)amino] ethanol; • 4: 1-(3,6-dichloro-9H-carbazol-9-yl)-3-(2-methyl-1H-imidazol-1-yl)-2-propanol; • 5: N-[2-(4-fluorophenyl)ethyl]-N′-(4-nitrophenyl) thiourea; • 6: N-(4-chlorobenzyl)-N′-4-pyridinylthiourea; • 7: N′-(3,5-dichloro-2-hydroxybenzylidene)-2-oxo-4-phenyl-3-pyrrolidinecarbohydrazide; and • 8: [(5-nitro-3-phenyl-1H-indol-2-yl)methyl]amine hydrochloride (NPIMA, structure shown in inset).
To identify compounds that kill E. coli persister cells, 10,000 compounds of the DIVERset Library from ChemBridge (San Diego, CA) were tested by adding 4 μl of each (in DMSO, final concentration 100 μM) to 186 μl of LB in 96-well plates along with 10 μl of persister cells; the persister cells were added after the ChemBridge chemical since LB wakes persister cells (Kim, Yamasaki, et al., 2018). For the negative control, pure DMSO (final concentration 2 vol %) was used. The degree of inhibition was determined by the change in turbidity at 600 nm after 24 hr. The best 26 compounds were re-tested with the same conditions.
To screen directly for killing persister cells, a high-throughput approach using 96-well microtiter plates was devised that consisted of (a) washing persister cells formed from exponentially-growing cells using rifampicin pretreatment followed by ampicillin treatment, (b) adding 10 μl of the persister cells to 190 μl of LB containing one each of the 10,000 compounds of the DiverSet library dissolved in dimethyl sulfoxide (100 μM final concentration), and (c) monitoring for growth via change in turbidity for 24 hr. With this approach, we allowed for up to a 140-fold change in turbidity (0.005 could be increased to 0.69).

SMILES: NCc1cc2ccccc2[nH]1 [2-(aminomethyl)-indole]
killing of exponential E. coli cells [1]: unable to kill E. coli

SMILES: Cc1[nH]c2ccc([N+](=O)[O-])cc2c1-c1ccccc1 [2-methyl-5-nitro-3-phenyl-1H-indole]
killing of exponential E. coli cells [1]: unable to kill E. coli

MIC (E. coli K-12 BW25113): 2000 µM (≈ 486 µg/mL)
MIC (P. aeruginosa PA14): 2000 µM (≈ 486 µg/mL)
MIC (S. aureus ATCC29213): 2000 µM (≈ 486 µg/mL)
SMILES: Ic1ccc2[nH]ccc2c1 [5-iodoindole, reference compound]
killing of exponential E. coli cells [1]: much less effective
killing of E. coli persister cells [2]: much less effective
killing of P. aeruginosa [3]: ineffective
killing of S. aureus (S. aureus cells): ineffective
persisters killed (E. coli persister cells [4]): 99.993%

SMILES: CCn1c(SCC(=O)c2ccc(Br)cc2)nc2sc3c(c2c1=O)CCCC3 [BPOET, 2-{[2-(4-bromophenyl)-2-oxoethyl]thio}-3-ethyl-5,6,7,8-tetrahydro[1]benzothieno[2,3-d]pyrimidin-4(3H)-one]
increase in persister cell waking based on turbidity (E. coli persister cells [5]): 44 fold
% waking [6]: 20 ± 13%
Fold-change in resuscitation relative to BW25113 with DMSO [6]: 4 fold and 4 ± 3 fold
Waking cells [6]: 38 ± 18

SMILES: Fc1cccc(NC(=S)Nc2ccc(Cl)c(Cl)c2)c1 [compound 1, N-(3,4-dichlorophenyl)-N′-(3-fluorophenyl) thiourea]
persister killing, second screen (FIG. 1) (E. coli persister cells [7]): Most effective

SMILES: Cl.OCCNc1nc(Nc2ccc(Br)cc2)nc2ccccc12 [compound 2, 2-({2-[(4-bromophenyl)amino]-4-quinazolinyl}amino)ethanol hydrochloride]
persister killing, second screen (FIG. 1) (E. coli persister cells [7]): Most effective

SMILES: OCCNC1CCCc2c1[nH]c1ccc(-c3ccccc3)cc21 (centres unmarked) [compound 3, 2-[(6-phenyl-2,3,4,9-tetrahydro-1H-carbazol-1-yl)amino] ethanol]
persister killing, second screen (FIG. 1) (E. coli persister cells [7]): Most effective

SMILES: Cc1nccn1CC(O)Cn1c2ccc(Cl)cc2c2cc(Cl)ccc21 (centres unmarked) [compound 4, 1-(3,6-dichloro-9H-carbazol-9-yl)-3-(2-methyl-1H-imidazol-1-yl)-2-propanol]
persister killing, second screen (FIG. 1) (E. coli persister cells [7]): Most effective

SMILES: S=C(NCc1ccc(Cl)cc1)Nc1ccncc1 [compound 6, N-(4-chlorobenzyl)-N′-4-pyridinylthiourea]
persister killing, second screen (FIG. 1) (E. coli persister cells [7]): Most effective

SMILES: O=C1NCC(c2ccccc2)C1C(=O)N/N=C\c1cc(Cl)cc(Cl)c1O (centres unmarked) [compound 7, N′-(3,5-dichloro-2-hydroxybenzylidene)-2-oxo-4-phenyl-3-pyrrolidinecarbohydrazide]
persister killing, second screen (FIG. 1) (E. coli persister cells [7]): Most effective
